What was measured:
ACKR3 [1] = test: ACKR3 | EC50 (nM)
Text: Table printed on a drawing sheet, FIG. 3 (continued) F
Head of the field: ACKR3 | EC50 (nM)
Footnotes: *NH2-substituted at C-terminus
The patent's description of the figure: FIG. 3. Structure-activity relationship analysis of adrenorphin variants on ACKR3 and classical opioid receptors. (A) Comparison of the impact of substitutions, truncations, extensions, D-amino acid replacement or dimerization on the agonist activity of adrenorphin towards ACKR3, MOR, DOR, KOR and NOP. The agonist activity or each variant was evaluated in β-arrestin-1 recruitment assay in U87 cells and expressed as fold change over the activity of wild-type adrenorphin. (B-E) Comparison of potency and efficacy of adrenorphin (B) and its variants bearing mutations Y1F (C), M5L (D) and R6A (E) to induce β-arrestin-1 recruitment to ACKR3 and the opioid receptors KOR, MOR, DOR and NOP in U87 cells. “˜” indicates a similar impact of the modification on the potency of the peptide towards ACKR3 and the indicated opioid receptor. Results represent the mean±S.E.M. (n ? 3) (F) Comparison of the potencies of peptide variants combining mutations Y1F with other modifications (mutations and/or extension) to induce β-arrestin-1 recruitment to ACKR3. Modified amino acids with respect to the mother peptide (Y1F adrenorphin […]) are underlined and in bold.
First copying reader's note: Bold underlined residues in the sequences mark modifications relative to the mother peptide; the pEC50 cells include the SEM after ±.
Where the first naming reader finds the target: head: ACKR3

[2] = system: rat locus coeruleus neurons; type: cell-based
Procedure: 1.9. Ex Vivo Rat Neuron Depolarization
Adult male Wistar rats (6 to 8-week old) were housed at room temperature in groups of three or four with a 12:12 hour light-dark cycle. All animals had access to ad libitum food and water. All procedures were carried out in accordance with guidelines of the European Communities Council Directive of 24 Nov. 1986 (86609EE) and were accepted by the Ethics Committee for Animal Use of the University of Liège (protocol 2061). All efforts were made to minimize animal suffering.
1.9.2. Brain Explant Preparation and Recording Procedures
Rats were anaesthetized with chloral hydrate (400 mg/kg, i.p.) and placed under a cap with oxygenated air (95% O2, 5% CO2) two minutes prior to decapitation. After decapitation, the brain was rapidly removed and placed in ice cold (˜2° C.) oxygenated artificial cerebrospinal fluid (aCSF) of the following composition: NaCl 130 mM, KCl 3.5 mM, NaH2PO4 1.25 mM, NaHCO3 24 mM, Glucose 10 mM, CaCl2 2 mM, MgSO4 1.25 mM. A block of tissue containing the pons was placed in a vibrating blade microtome (Vibratome 1000 Plus, Sectioning System) and a slice containing the locus coeruleus (LC) immediately rostral to the fourth ventricle and the VIIth nerve, used as anatomical landmarks, was cut coronally (400 μm thick). The slice was placed on a nylon mesh in a recording chamber (volume: 0.5 ml) where it was superfused by oxygenated aCSF (34.0±0.5° C.) at a rate of 2 to 3 ml/min. The LC was recognized as a translucent region during transillumination, lateral to the fourth ventricle. All experiments were performed in oxygenated aCSF with synaptic blockers consisting of 10 μM CNQX, 10 μM SR95531, 1 μM MK801, and 1 μM CGP55845, which block AMPA/Kainate, GABAA, NMDA, and GABAB receptors, respectively. This ensured that the spontaneous firing of the neurons was only due to its endogenous pace making.
Extracellular single cell recordings of LC neurons were performed with glass microelectrodes filled with aCSF (resistance 10-20 MΩ). Signals were passed through an impedance adapter and were amplified 1000× using a home-made amplifier. […] Data were collected and analysed with the Spike 2 software (Cambridge Electronic Design). […] The duration of the extracellularly recorded action potentials was 2-3 ms. Drugs and peptides were applied for at least 10 minutes.
The mean firing rate over 1 minute was calculated during each condition. Next, the inhibition of firing by the peptides and drugs used (LIH383 and dynorphin) was quantified as the % of total inhibition. For this purpose, present inventors considered the mean firing rate during the last minute of each condition (control, LIH383 alone, LIH383 plus a given concentration of dynorphin).

ACKR3 [3] = target: T1, ACKR3 (Homo sapiens, UniProt P25106); test: ACKR3-mediated depletion of extracellular dynorphin A monitored by its ability to activate KOR (U87-ACKR3 cells); type: cell-based; parameters: expressed in transfected cells; for the receptor comparison in the uptake assay, transient pcDNA3.1)
Procedure: In brief, 1.2×10^6 U87 cells were plated in 10 cm-culture dishes and 48 hours later co-transfected with pNBe vectors encoding GPCRs C-terminally tagged to SmBiT and human β-arrestin-1 or -2 or mini G proteins (mG, engineered GTPase domains of Gα subunits,) N-terminally fused to LgBiT. 48 hours post-transfection cells were harvested, incubated 25 minutes at 37° C. with Nano-Glo Live Cell substrate diluted 200-fold and distributed into white 96-well plates (5×10^4 cells per well). Ligand-induced, β-arrestin and mG recruitment to GPCRs was evaluated with a Mithras LB940 luminometer (Berthold Technologies) for 20 minutes. For concentration-response curves, the signal recorded with a saturating concentration of full agonist for each receptor was set as 100%.
Target sequence in this assay (P25106 whole entry, the tested form may be a part): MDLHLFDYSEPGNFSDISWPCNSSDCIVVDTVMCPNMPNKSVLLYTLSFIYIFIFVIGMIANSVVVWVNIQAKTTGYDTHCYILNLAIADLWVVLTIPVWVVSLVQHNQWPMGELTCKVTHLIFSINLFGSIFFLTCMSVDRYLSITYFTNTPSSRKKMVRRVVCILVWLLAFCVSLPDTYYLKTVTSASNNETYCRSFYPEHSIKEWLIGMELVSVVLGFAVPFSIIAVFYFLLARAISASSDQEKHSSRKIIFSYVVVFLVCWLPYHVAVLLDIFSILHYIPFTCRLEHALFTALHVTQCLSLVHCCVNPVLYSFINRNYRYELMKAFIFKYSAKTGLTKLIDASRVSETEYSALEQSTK

ACKR3 [4] = target: T1, ACKR3; type: cell-based; parameters: expressed in transfected cells; host or cells: U87 cells, transient co-transfection of pNBe vectors
Target sequence in this assay (P25106 whole entry, the tested form may be a part): as above
Target sequence in this assay (P49407 whole entry partner, the tested form may be a part): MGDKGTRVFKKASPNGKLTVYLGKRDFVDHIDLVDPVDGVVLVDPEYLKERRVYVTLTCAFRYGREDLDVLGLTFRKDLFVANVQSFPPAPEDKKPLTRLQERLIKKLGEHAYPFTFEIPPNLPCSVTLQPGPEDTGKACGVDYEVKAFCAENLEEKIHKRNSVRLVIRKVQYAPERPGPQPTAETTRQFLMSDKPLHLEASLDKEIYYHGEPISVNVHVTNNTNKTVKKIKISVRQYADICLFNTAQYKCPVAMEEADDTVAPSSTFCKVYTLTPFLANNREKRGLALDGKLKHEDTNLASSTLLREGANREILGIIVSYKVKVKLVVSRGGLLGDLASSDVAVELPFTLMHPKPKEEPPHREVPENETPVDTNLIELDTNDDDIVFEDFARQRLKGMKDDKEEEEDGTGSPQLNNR

Row | Molecule | EC50 (ACKR3 [1]) [nM] | other results
1 | FGGFMRRF (peptide 44) [SEQ ID NO: 69] | 11 | –
2 | CC[C@H](C)[C@H](NC(=O)[C@H](CCCNC(=N)N)NC(=O)[C@H](CCCNC(=N)N)NC(=O)[C@H](CC(C)C)NC(=O)[C@H](Cc1ccccc1)NC(=O)CNC(=O)CNC(=O)[C@@H](N)Cc1ccc(O)cc1)C(=O)N[C@@H](CCCNC(=N)N)C(=O)N1CCC[C@H]1C(=O)N[C@@H](CCCCN)C(=O)N[C@@H](CC(C)C)C(=O)N[C@@H](CCCCN)C(=O)N[C@@H](Cc1c[nH]c2ccccc12)C(=O)N[C@@H](CC(=O)O)C(=O)N[C@@H](CC(N)=O)C(=O)N[C@@H](CCC(N)=O)C(=O)O [dynorphin A] | – | EC50 ([2]; LIH383 3 μM group, read-out: EC50 of dynorphin for inhibition of firing, one aberrant individual value that was omitted): 559 nM; concentration giving total inhibition of neuron depolarization (neuronal firing) ([2]; explants of rat locus coeruleus): 1 µM; apparent potency to activate KOR in the presence of ACKR3-expressing cells (ACKR3 [3]): impaired
3 | FGGWMRRV (peptide 43) [SEQ ID NO: 68] | 10.5 | –
4 | FGGFMRRKR (peptide 2) [SEQ ID NO: 4] | 1.11 | –
5 | FGGWMRRFR (peptide 46) [SEQ ID NO: 71] | 19.1 | –
6 | dynorphin 2-13: endogenous truncated dynorphin variant [reference compound] | – | β-arrestin recruitment to ACKR3: agonist activity/potency in words (ACKR3 [4]; U87 cells): activated
7 | FGGWMRRKR (peptide 6) [SEQ ID NO: 11] | 7.34 | –
8 | dynorphin 2-17: endogenous truncated dynorphin variant (GGFLRRIRPKLKWDNQ; listed as Homo sapiens) [reference compound] | – | β-arrestin recruitment to ACKR3: agonist activity/potency in words (ACKR3 [4]; U87 cells): activated
9 | FGGWMRRF (peptide 47) [SEQ ID NO: 72] | 19.1 | –
10 | FGGWMRRK (peptide 4) [SEQ ID NO: 6] | 4.03 | –
11 | YGGFMRRV* (adrenorphin) [compound 32] | 109 | –
12 | FGGFMRRV* (mother peptide) [compound 35] | 9.33 | –
13 | FGGWMRRVR (peptide 5) [SEQ ID NO: 10] | 5.42 | –
14 | FGGFMRRVR (peptide 3) [SEQ ID NO: 5] | 3.97 | –
15 | FGGFMRRFR (peptide 45) [SEQ ID NO: 70] | 16.3 | –
16 | CXCL11: C—X—C motif chemokine 11, endogenous ACKR3 chemokine ligand | – | EC50 (ACKR3 [4]; U87 cells, read-out: EC50 in inducing β-arrestin recruitment to ACKR3): 2.2 nM
17 | CXCL10: irrelevant (negative control) chemokine | – | reversal of the ACKR3-mediated impairment of dynorphin A potency to activate KOR by pre-treatment (ACKR3 [3]; pre-treatment of ACKR3-expressing cells, saturating concentration): not
18 | Oc1ccc2c3c1O[C@H]1c4[nH]c5c(c4C[C@@]4(O)[C@@H](C2)N(CC2CC2)CC[C@]314)C[C@@]1(O)[C@H]2Cc3ccc(O)c4c3[C@@]1(CCN2CC1CC1)[C@H]5O4 [nor-binaltrophimine, reference compound] | – | activity of opioid modulators towards ACKR3 in β-arrestin recruitment (ACKR3 [4]; 10 μM, 1 μM and 100 nM): Weak activation of ACKR3
19 | C=CCN1CC[C@]23c4c5ccc(O)c4O[C@H]2C(=O)CC[C@@]3(O)[C@H]1C5 [naloxone] | – | effect of dynorphin A (1 μM) on neuronal firing rate after naloxone pretreatment [2]: did not lead to a change in neuronal firing rate

From US12578343B2, “Selective ACKR3 modulators and uses thereof” (Luxembourg Institute of Health (LIH), priority 2019, dated 2026)
